Values quoted from earlier work as cited in patent US11331358B2, “Pharmaceutical composition and method of manufacturing” (CURE PHARMACEUTICAL HOLDING CORP., priority 2014, dated 2022).
Values after ≈ are worked out from the molar mass of the structure shown. Where two headings read alike, the source gives them in different places.

Conditions: for Solubility in alcohols, lipids and organic solvents: solvents as named in the value; for Solubility in alcohols, lipids and organic solvents / Solubility in alkaline solutions: qualitative; for Solubility in alkaline solutions: alkaline solutions / alkalai
[1] = qualitative (insol. / sp. sol. / sol)

| Compound | Solubility in alcohols, lipids and organic solvents | Solubility in water [1] | Solubility in alkaline solutions | Solubility in water (23° C.) |
| --- | --- | --- | --- | --- |
| C=C(C)C1CC=C(C)C(=O)C1 (stereo not shown) [carvone] | sol. alcohols, organic solvents (ethers, halocarbons) | insol. | – | – |
| CCCCCc1cc(O)c(C/C=C(\C)CCC=C(C)C)c(O)c1 [cannabigerol (CBG), cannabigerol] | sol. pentane | insol. | – | – |
| CCCCCc1cc(O)c2c(c1)OC1(C)CCC3C1C2C3(C)C (stereo not shown) [cannabicyclol (CBL), cannabicyclol] | sol. pentane | insol. | – | – |
| fenchone | sol. alcohols, organic solvents (ethers, halocarbons) | insol. | – | – |
| CCCCCc1cc2c(c(O)c1C(=O)O)-c1cc(C)ccc1C(C)(C)O2 [cannabinolic acid (CBNA), cannabinolic acid] | sol. alcohols | sol | sol | – |
| COc1cc(-c2cc(=O)c3c(O)c(CC=C(C)C)c(O)cc3o2)ccc1O [cannaflavin B] | sol. alcohols, ethers, halocarbons | insol. | sol. | – |
| C=C(C)C1CCC2(C)OC2C1 (stereo not shown) [limonene oxide] | sol. alcohols, organic solvents (ethers, halocarbons) | insol. | – | – |
| CCCc1cc(O)c2c(c1)OC(C)(C)[C@@H]1CCC(C)=CC21 (stereo partly shown) [Δ(9)- tetrahydrocannabivarin (Δ(9)-THV), Δ(9)-tetrahydrocannabivarin] | sol. alcohols | sol | sol | – |
| CCCCCc1cc(O)c2c(c1)OC(C)(C)[C@@H]1CC=C(C)CC21 (stereo partly shown) [Δ(8)-tetrahydrocannabinol (Δ(8)-THC), Δ(8)-tetrahydrocannabinol] | sol. MeOH, EtOH sol. lipids sol. non-polar organic solvents | insol. | – | – |
| CCCCCc1cc2c(c(O)c1C(=O)O)C1CC(C)=CC[C@H]1C(C)(C)O2 (stereo partly shown) [Δ(8)-tetrahydrocannabinolic acid] | sol. alcohols | sol | sol | – |
| CCCCCc1cc(O)c2c(c1)OC(C)(C)c1ccc(C)cc1-2 [cannabinol (CBN), cannabinol] | sol. MeOH, EtOH, lipids, non-polar organic solvents | insol. | – | – |
| CC(C)=C1CC[C@@H](C)CC1=O [pulegone] | sol. alcohols, organic solvents (ethers, halocarbons) | insol. | – | – |
| C[C@@H]1CCC2(OC2(C)C)C(=O)C1 (stereo partly shown) [pulegone-1,2epoxide] | sol. alcohols, organic solvents (ethers, halocarbons) | insol. | – | – |
| CCCCCc1cc(O)c2c(c1)OC(C)(CCC=C(C)C)C=C2 (stereo not shown) [cannabichromene (CBC), cannabichromene] | sol. pentane | insol. | – | – |
| Cc1ccc(C(C)C)cc1 [p-cymene] | sol. alcohols, organic solvents (ethers, halocarbons), hydrocarbons | insol. | – | – |
| COc1cc(-c2cc(=O)c3c(O)c(C/C=C(\C)CCC=C(C)C)c(O)cc3o2)ccc1O [cannaflavin A] | sol. alcohols, ethers, halocarbons | insol. | sol. | – |
| C=C(C)C1CC=C(C)CC1c1c(O)cc(CCCCC)c(C(=O)O)c1O (stereo not shown) [Δ(8)-tetrahydrocannabidiolic acid] | sol. alcohols | sol | sol | – |
| CCCCCc1cc2c(c(O)c1C(=O)O)C1C=C(C)CC[C@H]1C(C)(C)O2 (stereo partly shown) [Δ(9)-tetrahydrocannabinolic acid] | sol. alcohols | sol | sol | – |
| C=C(C)C1CC=C(C)CC1c1c(O)cc(CCCCC)cc1O (stereo not shown) [Δ(8)-tetrahydrocannabidiol (Δ(8)-CBD), Δ(8)-tetrahydrocannabidiol] | sol. pentane | insol. | – | – |
| CCCCCc1cc(O)c2c(c1)OC(C)(C)[C@@H]1CCC(C)=CC21 (stereo partly shown) [Δ(9)-tetrahydrocannabinol (Δ(9)-THC), Δ(9)-tetrahydrocannabinol, reference compound] | sol. MeOH, EtOH sol. lipids sol. non-polar organic solvents | – | – | 2.8 µg/mL (≈ 8.9 µM) |
| C=C(C)C1CC=C(C)CC1 (stereo not shown) [limonene] | sol. alcohols, organic solvents (ethers, halocarbons), hydrocarbons | insol. | – | – |
| CC1=CCC(O)(C(C)C)CC1 (stereo not shown) [terpinen-4-ol] | sol. alcohols, organic solvents (ethers, halocarbons) | insol. | – | – |
| C=C1CCC2OC2(C)CC[C@H]2[C@H]1CC2(C)C (stereo partly drawn) [β-caryophyllene epoxide] | sol. alcohols, organic solvents (ethers, halocarbons) | insol. | – | – |
| CC12CCC(CC1)C(C)(C)O2 [1,8-cineole] | sol. alcohols, organic solvents (ethers, halocarbons) | insol. | – | – |
| CCCCCc1cc2c(c(O)c1C(=O)O)C=CC(C)(CCC=C(C)C)O2 (stereo not shown) [cannabichromenic acid (CBCA), cannabichromenic acid] | sol. alcohols | sol | sol | – |
| C=CC(=C)CCC=C(C)C [β-myrcene] | – | insol. | – | – |
| Cc1ccc(C(C)C)cc1O [carvacrol] | sol. alcohols, organic solvents (ethers, halocarbons) | sp. sol. | – | – |
| CCCCCc1cc(O)c(C/C=C(\C)CCC=C(C)C)c(O)c1C(=O)O [cannabigerolic acid (CBGA), cannabigerolic acid] | sol. alcohols | sol | sol | – |
| CCCCCc1cc2c(c(O)c1C(=O)O)C1C3C(CCC3(C)O2)C1(C)C (stereo not shown) [cannabicyclolic acid (CBLA), cannabicyclolic acid] | sol. alcohols | sol | sol | – |
